From patent publication US20220151935A1, “USE OF AMINO ACID BASED NUTRIENTS AND PHARMACEUTICAL COMPOSITION CONTAINING THE SAME” (priority 2018, published 2022)
Like-named read-outs stand apart in the source and are kept apart here. Each block holds one molecule with its values, some of them ahead of it.

Experiments:
[1] = Saturated concentration of 5-fluorouracil; type: physicochemical; details: aqueous solution
[2] = system: human head and neck cancer cells (Fμda); test: Tumor inhibition in nude mice bearing human head and neck cancer cells (Fμda); type: in vivo; details: Example 2; intratumoral 100 μl/mouse every 3 days x3; next day; avg tumor volume 109 mm^3
Excerpt: (§1) One of the core characteristics of tumors is heterogeneity. […] The corresponding negative control was normal saline.

[3] = system: human nasopharynx cancer cells (CNE1); test: Tumor inhibition in nude mice bearing human nasopharynx cancer cells (CNE1); details: Example 2; intratumoral 100 μl/mouse every 3 days x3; next day; avg tumor volume 78 mm^3
[4] = system: human breast cancer cells (MDA-MB231); test: Tumor inhibition in nude mice bearing human breast cancer cells (MDA-MB231); details: Example 2; intratumoral 100 μl/mouse every 3 days x3; next day; avg tumor volume 71 mm^3
HepG2 = test: Intratumoral tissue destruction, histological observation of HepG2 tumors; details: Table 7; intratumoral injection, once, ≤130 μl/mouse; next day; scale 0 = blank control, 5 = 5% acetic acid
[5] = system: human ovary cancer cells (PA1); test: Tumor inhibition in nude mice bearing human ovary cancer cells (PA1); details: Example 2; intratumoral 100 μl/mouse every 3 days x3; next day; avg tumor volume 104 mm^3
[6] = system: human prostate cancer cells (LNCaP/AR); test: Tumor inhibition in nude mice bearing human prostate cancer cells (LNCaP/AR); details: Example 2; intratumoral 100 μl/mouse every 3 days x3; next day; avg tumor volume 91 mm^3
[7] = system: human stomach cancer cells (BGC823); test: Tumor inhibition in nude mice bearing human stomach cancer cells (BGC823); details: Example 2; intratumoral 100 μl/mouse every 3 days x3; next day; avg tumor volume 85 mm^3
[8] = system: human liver cancer cells (HepG2); test: Tumor weight and tumor inhibition in nude mice bearing HepG2; type: in vivo; details: for Intratumoral injection Tumor inhibition rate / Intratumoral injection Tumor weight / Tumor inhibition rate of intraperitoneal injection: 5th day after last dose
Protocol: as §1
(§2) They were injected intraperitoneally and intratumorally.
The negative control group was given normal saline. The compositions of the study drug are as shown in the table below: 4 types and concentrations of amino acid based nutrient single drugs (X % amino acid based nutrients), 18 types and concentrations of ineffective absorption drugs (Y % ineffective absorption drugs), 24 compositions comprising various types and concentrations of amino acid based nutrients and ineffectively absorption drugs (X % amino acid based nutrients/Y % ineffectively absorption drugs).
The negative control was normal saline. The compositions of 16 study drugs, as shown in the table below, comprise: a 5-fluorouracil single drug of 4 varying concentrations (X % 5-fluorouracil), and an amino acid based nutrient with 5 varying concentrations (Y % amino acid based nutrient), 7 compositions consisting of 5-fluorouracil of varying concentrations and an amino acid based nutrient of varying concentrations (X % 5-fluorouracil/Y % amino acid based nutrient). […] The dose at each time was: 5-fluorouracil 50 mg/kg, glutathione ≤1 g/kg, and an injection volume was ≤150 μl/mouse.
The negative control was normal saline, the positive control was 1% 5-fluorouracil, and the study drug was 1% methylene blue/10% amino acid based nutrient composition (the type of the amino acid based nutrient is variable). The amino acid based nutrients in the compositions used in study groups 1-13 were: arginine, glycine, cysteine hydrochloride, valine, threonine, proline, histidine hydrochloride, phenylalanine, lysine, leucine, alanine, glutathione, serine, and the study drug used in the study group 14 was 1% methylene blue/5% arginine/5% glycine.

[9] = system: human thyroid cancer cells (SW579); test: Tumor inhibition in nude mice bearing human thyroid cancer cells (SW579); details: Example 2; intratumoral 100 μl/mouse every 3 days x3; next day; avg tumor volume 103 mm^3
[10] = system: pancreatic cancer cells PANC-1; details: once, 150 μl, next day, vs blank group
[11] = system: pancreatic cancer cells PANC-1; test: Tumor inhibition in nude mice bearing pancreatic cancer cells PANC-1; type: in vivo
Protocol: as §2
After anatomy, the tumor weight was measured and the tumor inhibition rate was calculated.

[12] = system: human lung cancer cells (A549); test: Tumor inhibition in nude mice bearing human lung cancer cells (A549); details: Example 2; intratumoral 100 μl/mouse every 3 days x3; next day; avg tumor volume 83 mm^3
[13] = Table 6, avg tumor volume 153 mm^3, ≤120 μl/mouse every 3 days x3
[14] = Table 8, avg tumor volume 175 mm^3, ≤150 μl/mouse every 3 days x3
[15] = Table 3, avg tumor volume 105 mm^3, 100 μl/mouse every 3 days x3, next day after last dose

saturated concentration (Canti) [1]: about 1.5%
Structure (SMILES): O=c1[nH]cc(F)c(=O)[nH]1 [5-fluorouracil]

Structure (SMILES): N[C@@H](CCC(=O)N[C@@H](CS)C(=O)NCC(=O)O)C(=O)O [10% glutathione, Reduced glutathione]
Tumor inhibition rate [2]: 53%
Tumor inhibition rate [3]: 61%
Tumor inhibition rate [4]: 64%
Intratumoral tissue destruction (HepG2): 1
Tumor inhibition rate [5]: 67%
Tumor inhibition rate [6]: 65%
Tumor inhibition rate [7]: 59%
Tumor inhibition rate ([8]; Example 2, intratumoral 100 μl/mouse every 3 days x3, next day, avg tumor volume 81 mm^3): 61%
Intratumoral injection Tumor inhibition rate [8, 13]: 58%
Intratumoral injection Tumor weight [8, 13]: 0.97 ± 0.24 g
Tumor inhibition rate of intraperitoneal injection [8, 13]: 3%
Intratumoral injection Tumor inhibition rate [8, 14]: 59%
Intratumoral injection Tumor weight [8, 14]: 1.04 ± 0.23 g
Tumor inhibition rate of intraperitoneal injection [8, 14]: 1%
Tumor inhibition rate ([8]; Table 16, avg tumor volume 169 mm^3, intratumoral every 3 days x3, ≤150 μl/mouse, 5th day): (62%)
Tumor inhibition rate [9]: 61%
histological observation of the tumor ([10]; intraperitoneal injection): no obvious difference between group A and the blank group
histological observation of the tumor ([10]; intratumoral injection): obvious intratumoral tissue destruction
Tumor inhibition rate of intraperitoneal injection [11, 15]: 51%
Tumor inhibition rate of intratumoral injection [11, 15]: 3%
Tumor inhibition rate ([11]; Table 4, avg tumor volume 136 mm^3, intratumoral every 3 days x3, ≤150 μl, next day): 57%
Tumor inhibition rate [12]: 59%
